Laboratory results taken from PubChem BioAssay (NCI).
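Five compound concentrations were applied to cells in 96-well plates for 48 hours; endpoints were derived by simple linear interpolation of the resulting dose-response curve. GI50: concentration for 50% inhibition of growth. TGI: concentration producing complete growth inhibition.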

What was measured:
Assay in all cases: growth of human tumour cells (NCI), 48 h
[1] = test system: SR leukemia
[2] = test system: 786-0 renal
[3] = test system: HL-60(TB) leukemia
[4] = test system: SK-OV-3 ovarian
[5] = test system: ACHN renal
[6] = test system: CCRF-CEM leukemia
[7] = test system: TK-10 renal
[8] = test system: U251 CNS
[9] = test system: A498 renal
[10] = test system: BT-549 breast
[11] = test system: HS 578T breast
[12] = test system: NCI-H460 lung
[13] = test system: SF-268 CNS
[14] = test system: CAKI-1 renal
[15] = test system: LOX IMVI melanoma
[16] = test system: SN12C renal
[17] = test system: T-47D breast
[18] = test system: OVCAR-5 ovarian
[19] = test system: NCI-H522 lung
[20] = test system: DU-145 prostate
[21] = test system: IGROV1 ovarian
[22] = test system: HCC-2998 colon
[23] = test system: COLO 205 colon
[24] = test system: A549 NSCLC
[25] = test system: MCF7 breast
[26] = test system: MDA-MB-231 breast
[27] = test system: OVCAR-3 ovarian
[28] = test system: HOP-92 NSCLC
[29] = test system: K-562 leukemia
[30] = test system: NCI-H226 lung
[31] = test system: MDA-MB-435
[32] = test system: MALME-3M melanoma
[33] = test system: HOP-62 NSCLC
[34] = test system: OVCAR-4 ovarian
[35] = test system: RPMI-8226 leukemia
[36] = test system: SF-295 CNS
[37] = test system: SNB-19 CNS
[38] = test system: HCT-116 colon
[39] = test system: UACC-257 melanoma
[40] = test system: OVCAR-8 ovarian
[41] = test system: SNB-75 CNS
[42] = test system: HCT-15 colon
[43] = test system: M14 melanoma
[44] = test system: SW-620 colon
[45] = test system: SK-MEL-5 melanoma
[46] = test system: UO-31 renal
[47] = test system: MOLT-4 leukemia
[48] = test system: SK-MEL-28 melanoma
[49] = test system: KM12 colon
[50] = test system: SK-MEL-2 melanoma
[51] = test system: HT29 colon
[52] = test system: RXF 393 renal
[53] = test system: SF-539 CNS
[54] = test system: NCI/ADR-RES ovarian

With `Cc1cc(Nc2nc(C(=O)Nc3ccccc3)nc3ccccc23)n[nH]1` the GI50 [1] was 4.36 µM, the TGI [1] was > 25 µM and the GI50 [2] was 10.1 µM. The TGI [2] was > 25 µM, the GI50 [3] was 5.9 µM and the TGI [3] was > 25 µM. For the same compound, the GI50 [4] was 12.8 µM, the TGI [4] was > 25 µM and the GI50 [5] was 2.87 µM. For the same compound, the TGI [5] was > 25 µM, the GI50 [6] was 4 µM and the TGI [6] was > 25 µM. For the same compound, the GI50 [7] was 2.52 µM, the TGI [7] was > 25 µM and the GI50 [8] was 5.71 µM. The TGI [8] was > 25 µM, the GI50 [9] was 1.05 µM and the TGI [9] was > 25 µM. The GI50 [10] was 15.7 µM, the TGI [10] was > 25 µM and the GI50 [11] was 7.68 µM. The TGI [11] was > 25 µM, the GI50 [12] was 2.29 µM and the TGI [12] was > 25 µM. For the same compound, the GI50 [13] was 9.25 µM, the TGI [13] was > 25 µM and the GI50 [14] was 1.87 µM. For the same compound, the TGI [14] was > 25 µM, the GI50 [15] was 4.47 µM and the TGI [15] was > 25 µM. For the same compound, the GI50 [16] was 10.3 µM, the TGI [16] was > 25 µM and the GI50 [17] was 6.61 µM. For the same compound, the TGI [17] was > 25 µM, the GI50 [18] was > 25 µM and the TGI [18] was > 25 µM. The GI50 [19] was 6.37 µM, the TGI [19] was > 25 µM and the GI50 [20] was 9.08 µM. The TGI [20] was > 25 µM, the GI50 [21] was 4.48 µM and the TGI [21] was > 25 µM. For the same compound, the GI50 [22] was 17.7 µM, the TGI [22] was > 25 µM and the GI50 [23] was 14.4 µM. For the same compound, the TGI [23] was > 25 µM, the GI50 [24] was 13.9 µM and the TGI [24] was > 25 µM. The GI50 [25] was 13 µM, the TGI [25] was > 25 µM and the GI50 [26] was 13.6 µM. The TGI [26] was > 25 µM, the GI50 [27] was 11.5 µM and the TGI [27] was > 25 µM. The GI50 [28] was 0.399 µM, the TGI [28] was > 25 µM and the GI50 [29] was 7.94 µM. For the same compound, the TGI [29] was > 25 µM, the GI50 [30] was 10 µM and the TGI [30] was > 25 µM. For the same compound, the GI50 [31] was 9.67 µM, the TGI [31] was > 25 µM and the GI50 [32] was 13.8 µM. The TGI [32] was > 25 µM, the GI50 [33] was 14.2 µM and the TGI [33] was > 25 µM. For the same compound, the GI50 [34] was 7.87 µM, the TGI [34] was > 25 µM and the GI50 [35] was 12.5 µM. For the same compound, the TGI [35] was > 25 µM, the GI50 [36] was 7.82 µM and the TGI [36] was > 25 µM. The GI50 [37] was > 25 µM, the TGI [37] was > 25 µM and the GI50 [38] was 4.7 µM. For the same compound, the TGI [38] was > 25 µM, the GI50 [39] was > 25 µM and the TGI [39] was > 25 µM. For the same compound, the GI50 [40] was 14.5 µM, the TGI [40] was > 25 µM and the GI50 [41] was 6.8 µM. The TGI [41] was > 25 µM, the GI50 [42] was 1.39 µM and the TGI [42] was > 25 µM. For the same compound, the GI50 [43] was 3.48 µM, the TGI [43] was > 25 µM and the GI50 [44] was 9.7 µM. The TGI [44] was > 25 µM, the GI50 [45] was 22.5 µM and the TGI [45] was > 25 µM. For the same compound, the GI50 [46] was 1.3 µM, the TGI [46] was > 25 µM and the GI50 [47] was 9.75 µM. For the same compound, the TGI [47] was > 25 µM, the GI50 [48] was > 25 µM and the TGI [48] was > 25 µM. The GI50 [49] was 3.68 µM, the TGI [49] was > 25 µM and the GI50 [50] was 3.57 µM. The TGI [50] was > 25 µM, the GI50 [51] was 17.6 µM and the TGI [51] was > 25 µM. For the same compound, the GI50 [52] was 3.66 µM, the TGI [52] was > 25 µM and the GI50 [53] was > 25 µM. For the same compound, the TGI [53] was > 25 µM, the GI50 [54] was 0.916 µM and the TGI [54] was > 25 µM.
`C[N+](C)(C)C(CSSCC(C(=O)[O-])[N+](C)(C)C)C(=O)[O-]` (configuration not stated) gave a GI50 [28] of 72.1 µM, a GI50 [31] of 25.5 µM and a TGI [31] of 71.2 µM. The GI50 [41] was 32.5 µM.
